From patent publication US20240409542A1, “NOVEL COMPOUNDS” (Sitryx Therapeutics Limited, priority 2021, published 2024)
In brackets after ≈: the same amount, converted by molar mass.

Columns and labels:
recombinant human PKM2 = recombinant human PKM2 (Homo sapiens (Human), UniProt P14618); experiment: Human PKM2 activation assay (Kinase-Glo Plus luminescence); assay type: biochemical; conditions: for EC50: activation of recombinant human PKM2, 4-parameter logistic fit, read-out: hPKM2 EC50
Description: Compound activation of recombinant human PKM2 pyruvate kinase activity was determined by biochemical assay. N-terminal His-tagged hPKM2 was sourced from R&D Systems and its substrates phosphoenolpyruvate (PEP) and ADP from Sigma-Aldrich and 2BScientific Ltd, respectively. The Kinase-Glo® Plus luminescence assay was from Promega. All other reagents were from Sigma-Aldrich. Test Compounds were prepared as 10 mM DMSO stocks and dilution series prepared in DMSO for direct dilution into Assay Buffer comprising 50 mM imidazole, 50 mM KCl, 7 mM MgCl2, 0.01% Tween20, 0.05% BSA (pH 7.2).
Human PKM2 was diluted into Assay Buffer comprising 50 mM imidazole, 50 mM KCl, 7 mM MgCl2, 0.01% Tween20, 0.05% BSA (pH 7.2) to a final concentration of 5 pM. Enzyme-Assay Buffer mix was dispensed into a 384-well shallow-well white-walled plate (PerkinElmer) and Test Compounds added by acoustic dispense (Echo®, Labcyte Inc.).
After 60 minutes' incubation on an orbital shaker (300 rpm, 26° C.), enzyme activity was quantified by the luminescent detection of generated ATP. Kinase-Glo® Plus reagent was added to each well and the plates incubated for a further 15 minutes on an orbital shaker in the dark (300 rpm, 26° C.) before luminescence measurement on a plate reader (PHERAstar® FSX, BMG Labtech).
EC50 and Emax values were determined from 4-parameter logistic fits of compound concentration-response curves.

A549 cells = experiment: A549 proliferation assay in low-serine medium (CellTiter-Glo); assay type: cell-based; conditions: Homo sapiens, 72 h, 3 days, low-serine medium (20 μM L-serine)
Description: The effect of compounds of Formula (I) on A549 cell proliferation in low-serine medium was assessed using a luminescence assay of viable cell number (CellTiter-Glo® 2.0, Promega) duplexed with a fluorescent cytotoxicity assessment (CellTox™ Green, Promega). Cell culture reagents were from ThermoFisher unless specified otherwise. Assay reagents were from Sigma-Aldrich unless specified otherwise. Test Compounds were prepared as 10 mM DMSO stocks and dilution series prepared in DMSO for direct dilution into culture medium.
Cells were passaged every 3-4 days at 80-90% confluence. The cell monolayer was washed twice with room-temperature Ca^2+/Mg-free PBS and 4 ml room-temperature trypsin-EDTA added to the flask. After 5 minutes' incubation (37° C., 5% CO2) to detach cells, trypsin was quenched with 13 ml warmed complete growth medium and the cells harvested and diluted to 2.4×10^4 cells/ml for dispensing into 384-well clear-bottom black-walled plates (600 cells/well).
Following overnight incubation, growth medium was aspirated from each well and the cells washed twice with Assay Medium comprising Basal Medium Eagle supplemented with 3% heat-inactivated dialysed FBS plus 2 mM L-glutamine plus 20 μM L-serine (Sigma-Aldrich). After aspiration of the final wash medium, Assay Medium containing Test Compound was added to each well. DMSO vehicle controls were included on each plate.
Cells were incubated for 3 days in a humidified incubator (37° C., 5% CO2) at which point CellTox™ Green and CellTiter-Glo® reagents were prepared according to the manufacturer's instructions. Triton-X was added to HIGH wells for cytotoxicity determination and the plate incubated for 30 minutes (20° C., ambient humidity and pCO2). CellTox™ Green reagent was added to each well and the plate covered, placed on an orbital shaker @450 rpm for 2 minutes, and incubated in the dark for 15 minutes (20° C., ambient humidity and pCO2). Endpoint fluorescence was measured using a plate reader (PHERAstar® FSX, BMG Labtech).
Following cytotoxicity determination, CellTiter-Glo® reagent was added to each well and the plate placed on an orbital shaker @450 rpm for 2 minutes to lyse cells. Plates were incubated in the dark for 15-30 minutes (20° C., ambient humidity and pCO2) prior to endpoint luminescence measurement (PHERAstar® FSX, BMG Labtech).
Proliferation was calculated by normalizing luminescence signals to LOW controls obtained from a parallel plate processed at the time of Test Compound challenge and HIGH (DMSO vehicle) wells from the compound plate. IC50 values were determined from a 4-parameter logistic fit of compound concentration-response curves.

[1] = Kinetic aqueous solubility; conditions: phosphate buffered saline (PBS) pH 7.4, pH 7.4, aqueous buffer, kinetic from dmso stock, Kinetic solubility (Ksol), (μg/ml), PBS pH 7.4, 200 μM (2% DMSO), RT
Description: (§1) Phosphate buffered saline (PBS) pH 7.4 was prepared using PBS tablets as per the manufacturer's instructions. Compounds and marker stocks are prepared at 10 mM in DMSO.
(§2) Compounds were incubated at 200 μM (2% DMSO) in Millipore—MSS LB PC 10 or Porvair—ref: 36004 plates in the presence of the prepared PBS pH 7.4 solution for 1.5 h, at RT, with gentle shaking. […] The samples were then analysed in a 96 well UV Star analysis plate on a plate reader from 220 nm to 500 nm at 10 nm increments.
(§3) The concentration of the samples was calculated against the standard curves.

recombinant human PKLR = recombinant human PKLR (Homo sapiens (Human), UniProt P30613); experiment: Human PKLR activation assay (Kinase-Glo Plus luminescence)
Description: Compound activation of recombinant human PKLR pyruvate kinase activity was determined by biochemical assay. N-terminal His-tagged enzyme was sourced from R&D Systems and its substrates phosphoenolpyruvate (PEP) and ADP from Sigma-Aldrich and 2BScientific Ltd, respectively. The Kinase-Glo® Plus luminescence assay was from Promega. All other reagents were from Sigma-Aldrich. Test Compounds were prepared as 10 mM DMSO stocks and dilution series prepared in DMSO for direct dilution into Assay Buffer comprising 50 mM imidazole, 50 mM KCl, 7 mM MgCl2, 0.01% Tween20, 0.05% BSA (pH 7.2).
Human PKLR was diluted into Assay Buffer to a final concentration of 5 pM. Enzyme-Assay Buffer mix was dispensed into 384-well shallow-well white-walled plates and Test Compounds added by acoustic dispense (Echo®, Labcyte Inc).

[2] = pH 7.4
Description: as §1, §2, §3

Sequence of recombinant human PKM2 (P14618 whole entry): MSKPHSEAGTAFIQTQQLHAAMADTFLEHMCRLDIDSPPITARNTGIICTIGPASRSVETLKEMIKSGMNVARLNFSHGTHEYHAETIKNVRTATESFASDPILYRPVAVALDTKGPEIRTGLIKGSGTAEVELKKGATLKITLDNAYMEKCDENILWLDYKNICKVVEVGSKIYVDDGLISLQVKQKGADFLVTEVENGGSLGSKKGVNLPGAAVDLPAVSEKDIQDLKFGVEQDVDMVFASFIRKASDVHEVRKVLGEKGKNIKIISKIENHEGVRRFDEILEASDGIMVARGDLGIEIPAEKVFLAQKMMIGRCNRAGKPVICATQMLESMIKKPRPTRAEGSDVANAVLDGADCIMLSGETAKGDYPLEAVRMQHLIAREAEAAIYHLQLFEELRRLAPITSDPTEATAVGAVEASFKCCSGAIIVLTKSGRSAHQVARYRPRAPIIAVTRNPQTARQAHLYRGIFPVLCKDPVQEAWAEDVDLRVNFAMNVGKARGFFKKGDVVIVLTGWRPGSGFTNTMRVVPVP
Sequence of recombinant human PKLR (P30613 whole entry): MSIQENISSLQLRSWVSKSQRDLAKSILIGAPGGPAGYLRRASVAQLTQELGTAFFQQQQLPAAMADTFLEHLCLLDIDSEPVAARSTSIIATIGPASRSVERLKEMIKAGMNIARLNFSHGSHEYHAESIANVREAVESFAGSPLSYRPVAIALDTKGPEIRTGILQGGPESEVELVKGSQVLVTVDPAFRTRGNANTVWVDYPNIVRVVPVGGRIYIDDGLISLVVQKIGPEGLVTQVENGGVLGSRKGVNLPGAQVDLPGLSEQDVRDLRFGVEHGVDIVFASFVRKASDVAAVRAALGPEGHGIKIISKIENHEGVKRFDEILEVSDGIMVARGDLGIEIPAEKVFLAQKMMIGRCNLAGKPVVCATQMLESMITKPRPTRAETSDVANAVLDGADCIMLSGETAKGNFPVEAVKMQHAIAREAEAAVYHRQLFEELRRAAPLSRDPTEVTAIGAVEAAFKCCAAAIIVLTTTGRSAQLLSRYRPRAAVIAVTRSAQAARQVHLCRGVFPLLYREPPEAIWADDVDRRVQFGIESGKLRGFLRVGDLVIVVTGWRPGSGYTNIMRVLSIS

| EC50 (recombinant human PKM2) | Emax (recombinant human PKM2; read-out: hPKM2 Emax (%)) | IC50 (A549 cells) | solubility kinetic at 1.5 h [1] | EC50 (recombinant human PKLR) | Emax (recombinant human PKLR; read-out: hPKLR Emax (%)) | hPKM2 Emax (%) (recombinant human PKM2; percentage activation normalised to DMSO vehicle (LOW) and 5 μM TEPP-46 (HIGH)) | Kinetic solubility (Ksol); [2] | Compound |
| --- | --- | --- | --- | --- | --- | --- | --- | --- |
| 1490 nM | 79.7% | 13.5 nM | 61.6 µg/mL (≈ 145 µM) | 60 to 320 nM | 100 to 117% |  |  | Cn1c2c(c3cnn(Cc4cc[nH]n4)c(=O)c31)CCN(S(=O)(=O)c1ccccc1)C2 [Example 12, 3-((1H-pyrazol-3-yl)methyl)-5-methyl-7-(phenylsulfonyl)-3,5,6,7,8,9-hexahydro-4H-pyrido[4′,3′:4,5]pyrrolo[2,3-d]pyridazin-4-one] |
| 83 nM |  |  |  |  |  | 62.2% | 30.29 µg/mL | (3-((1H-pyrrolo[2,3-c]pyridin-3-yl)methyl)-N-ethyl-5-methyl-4-oxo-5,6,8,9-tetrahydro-3H-pyrido[4′,3′:4,5]pyrrolo[2,3-d]pyridazine-7(4H)-sulfonamide [Example 30] |
